Molecules are shown by their SMILES. Values after ≈ are worked out from the molar mass of the structure shown. Where a name gives a salt, the structure may show the parent alone.

For data set [1], the system named is Coagulase Negative Staphylococci MS. Nature of the data set: MIC by agar-dilution technique, coagulase negative staphylococci MS. The settings on record: IsoSensitest agar, inoculum 10^4 CFU/spot, 37° C., 24 hours, methicillin sensitive. It counts as cell-based. The method, then:
(§1) The following results were obtained on a standard in vitro test system. The activity is described in terms of the minimum inhibitory concentration (MIC) determined by the agar-dilution technique with an inoculum size of 10^4 CFU/spot.
(§2) The organisms were tested on a standard semi-defined susceptability test medium (IsoSensitest agar), using an inoculum of 10^4 CFU/spot and an incubation temperature of 37° C. for 24 hours. Typically, compounds are active in the range 0.01 to 128 μg/ml.

In another data set the test system is Enterococcus faecalis. Nature of the data set: MIC by agar-dilution technique, E. faecalis. The data set is classed as cell-based. The note with it: IsoSensitest agar, inoculum 10^4 CFU/spot, 37° C., 24 hours. The method, then:
as §1, §2

In data set [2] the test system is Staphylococcus aureus Novb. Res. Nature of the data set: MIC by agar-dilution technique, S. aureus novobiocin resistant. The data set is classed as cell-based. The settings on record: 24 h. The method, then: as §1, §2
Data set [3] has as its system Staphylococcus aureus MRQR. Nature of the data set: MIC by agar-dilution technique, S. aureus MRQR. The note with it: IsoSensitest agar, inoculum 10^4 CFU/spot, 37° C., 24 hours, methicillin resistant quinolone resistant. It counts as cell-based. The method, then: as §1, §2
The test system of data set [4] is Coagulase Negative Staphylococci MR. Nature of the data set: MIC by agar-dilution technique, coagulase negative staphylococci MR. The data set is classed as cell-based. The settings on record: IsoSensitest agar, inoculum 10^4 CFU/spot, 37° C., 24 hours, methicillin resistant. How it is done: as §1, §2
Data set [5] concerns Staphylococcus aureus Oxford. Nature of the data set: MIC by agar-dilution technique, S. aureus Oxford. The settings on record: IsoSensitest agar, inoculum 10^4 CFU/spot, 37° C., 24 hours, Oxford strain. It counts as cell-based. The method, then: as §1, §2
The test system of data set [6] is Streptococcus pyogenes C203. Nature of the data set: MIC by agar-dilution technique, S. pyogenes C203. The note with it: IsoSensitest agar, inoculum 10^4 CFU/spot, 37° C., 24 hours. The data set is classed as cell-based. How it is done:
as §1, §2

The test system of a further data set is Bacillus subtilis. Nature of the data set: MIC by agar-dilution technique, B. subtilis. It counts as cell-based. The note with it: IsoSensitest agar, inoculum 10^4 CFU/spot, 37° C., 24 hours. The method, then:
as §1, §2

A further data set in a line: Solubility in water. The settings on record: dihydrochloride salt. The data set is classed as physicochemical.

For orientation: MIC means the smallest concentration in the dilution series that meets the test's criterion for growth inhibition. Higher therefore signals a need for much substance. Turning to `CC(=O)NC[C@H]1CN(c2ccc(-n3cnc(C=CC#N)c3)c(F)c2)C(=O)O1` [Example 2], the MIC in data set [1] turned out to be 0.06 mg/L (≈ 0.162 µM); in the data set on Enterococcus faecalis, 0.25 mg/L (≈ 0.677 µM); in data set [2] it was 0.25 mg/L (≈ 0.677 µM); in data set [3] it was 1 mg/L (≈ 2.71 µM); in data set [4] it was 0.25 mg/L (≈ 0.677 µM); in data set [5], 0.125 mg/L (≈ 0.338 µM). Further, the MIC in data set [6] was 0.125 mg/L (≈ 0.338 µM); in the data set on Bacillus subtilis, 0.25 mg/L (≈ 0.677 µM).

The solubility is the dissolved amount per volume that the medium holds. For `CC(=O)NC[C@H]1CN(c2ccc(-n3cnc(/C=C/c4ccccn4)c3)c(F)c2)C(=O)O1` [Example 11 dihydrochloride salt, N-[(5S)-3-(3-Fluoro-4-(4-(E-2-(Pyrid-2-yl)ethenyl)imidazol-1-yl)phenyl)-2-oxooxazolidin-5-ylmethyl]acetamide], the solubility in the data set “Solubility in water” is approximately 10 mg/mL.

(Values after patent US6194441A, “Oxazolidinone derivatives and their use as antibacterial agents” (Zeneca Ltd., priority 1997, dated 2001).)
